Converted amounts (≈) assume the structure as drawn. Like-named read-outs stand apart in the source and are kept apart here. Bounds are passed on as bounds.

The source of these data is patent US5036077A, “1-(benzylpiperidino)propan-2-ol derivatives, their preparation, their use as antimicrobial agents and the products in which they are present” (Sanofi, priority 1987, dated 1991).

Holding throughout (assay type): cell-based
The test system of test [1] is Escherichia coli CNCM 54127. The experiment in a line: Minimum bactericidal concentration, 30 min contact, strain 4. The conditions noted are these: for MBC: CNCM54127, 0.5 h, read-out: MBC, strain 4. As to the method:
(§1) A bacterial inoculum is brought into contact with different dilutions of the test product for a limited time of 30 minutes. When the contact time has ended, an aliquot of the bacterial suspension/product mixture is deposited on the surface of a gelose culture medium containing an agent for neutralizing the antibacterial activity of the product. The bactericidal concentration chosen is the minimum concentration of the product which is necessary to prevent bacterial growth. This concentration is expressed in μg/ml.
4 - Escherichia coli CNCM 54127.
(§2) The strains are maintained on Tryptic Soy Agar (TSA) marketed by Difco.
(§3) After 24 hours of culture at 37° C., the microbial growth is harvested with the aid of glass beads and 10 ml of diluent containing 1 g of tryptone and 8.5 g of sodium chloride in 1000 ml of distilled water. The suspension formed is shaken and the percentage transmission of light at 620 nm is measured on a spectrophotometer:
(§4) The bacterial inoculum corresponds to a 1/20 dilution of this bacterial suspension.
(§5) Plates containing cups receive different dilutions of the test product. These dilutions of the test product are brought into contact with the different bacterial suspensions using a multiple-site inoculator. After a contact time of 30 minutes, aliquots are transferred by means of this inoculator to the surface of a gelose medium (TSA) placed in petri dishes and containing an agent for neutralizing the activity, namely 20 g of lubrol W, 2.5 g of Tween 80, 2.5 g of sodium thiosulfate and 1% of egg yolk in 1000 ml of TSA (Difco). A reference for the efficacy of the neutralizing agent is prepared for each test product by depositing an aliquot of the dilution of the test product on the surface of the culture medium. After drying, the corresponding inoculum is deposited in the same place. A reference inoculum is prepared on a gelose medium with and without neutralizing agent. The results are read off after 48 hours of incubation at 37° C.
(§6) They indicate the minimum bactericidal concentrations (MBC) for strains 1, 2, 3 and 4 and the minimum fungicidal concentrations (MFC) for strain 5.

The subject of test [2] is Candida albicans CNCM 1180. The experiment in a line: Minimum fungicidal concentration, strain 5. The conditions noted are these: for MFC: CNCM1180, 0.5 h, read-out: MFC, strain 5. The method, then: as §1, §5
(§7) The antifungal activity of the products according to the invention was also determined using the method described above. The representative strain of yeast selected for the study was Candida albicans CNCM 1180 (strain 5).
This is maintained on a gelose medium of Sabouraud Dextrose Agar, marketed by Difco. The technique is identical to that described for studying the antibacterial activity. After 48 hours of culture at 37° C., the microbial growth is harvested with the aid of glass beads and 5 ml of diluent containing 1 g of tryptone and 8.5 g of sodium chloride in 1000 ml of distilled water; a further 5 ml of the diluent are then added. In a spectrophotometer, this suspension gives a 2 to 3% transmission of light at 620 nm. The inoculum corresponds to a 1/10 dilution of this microbial suspension. A 1/100 dilution of this suspension, observed between a microscope slide and cover slip through a lens of magnification 40, should show 10 cells per field, which corresponds to 1 000 000 yeasts per ml.
as §6

For test [3], the system named is Staphylococcus aureus CNCM 53154. The experiment in a line: Minimum bactericidal concentration, 30 min contact, strain 1. The conditions noted are these: for MBC: CNCM53154, 0.5 h, read-out: MBC, strain 1. As to the method:
as §1
1 - Staphylococcus aureus CNCM 53154;
as §2, §3, §4, §5, §6

Test [4] relates to Streptococcus faecalis CNCM 5855. The experiment in a line: Minimum bactericidal concentration, 30 min contact, strain 2. The conditions noted are these: for MBC: Enterococcus faecalis, CNCM5855, 0.5 h, read-out: MBC, strain 2. As to the method:
as §1
2 - Streptococcus faecalis CNCM 5855;
as §2, §3, §4, §5, §6

The test system of test [5] is bacterial strains and fungal strain tested. The experiment in a line: Bactericidal and fungicidal activities on the strains tested (overall statement). Particulars: bacterial strains 1-4 and fungal strain 5. As to the method: The bactericidal and fungicidal activities of the products according to the invention were studied on different strains.
as §1, §5, §7
By way of comparison, 3-aryloxy-1-piperidinopropan-2-ol derivatives described in the literature, or similar to the compounds described, were prepared and the bactericidal and fungicidal activities of these compounds and of propranolol were measured on the same strains and under the same conditions as for the products according to the invention. The results are reported in Table II after those obtained with the products according to the invention.

Test [6] has as its system Pseudomonas aeruginosa CNCM A22. The experiment in a line: Minimum bactericidal concentration, 30 min contact, strain 3. The conditions noted are these: for MBC: CNCMA22, 0.5 h, read-out: MBC, strain 3. As to the method:
as §1
3 - Pseudomonas aeruginosa CNCM A22;
as §2, §3, §4, §5, §6

The mark [7] stands for this setting: Escherichia coli CNCM 54127, contact time 30 minutes, solubilizing agent given per product.
[8] abbreviates: Candida albicans CNCM 1180, contact time 30 minutes, solubilizing agent given per product.
[9] abbreviates: Staphylococcus aureus CNCM 53154, contact time 30 minutes, solubilizing agent (water, TEG or acetone) given per product.
The mark [10] stands for this setting: Streptococcus faecalis CNCM 5855, contact time 30 minutes, solubilizing agent given per product.
[11] abbreviates: Pseudomonas aeruginosa CNCM A22, contact time 30 minutes, solubilizing agent given per product.

Take `Cl.OC(CSc1ccc(Br)cc1)CN1CCCCC1` (centres unmarked) [Product C, 3-(4-bromophenylthio)-1-piperidinopropan-2-ol hydrochloride, reference compound]: the MBC in test [1] (setting [7]), in test [3] (setting [9]), in test [4] (setting [10]) and in test [6] (setting [11]) was greater than 1000 µg/mL in each case. In addition, the MFC (commonly the smallest concentration meeting the test's criterion for killing the fungus) in test [2] (setting [8]) worked out at 1000 µg/mL. For the same compound, the “antimicrobial activity (in words)” value in test [5] is “no antimicrobial activity”.
As for `Cl.OC(COc1ccccc1)CN1CCC(c2ccccc2)CC1` (centres unmarked) [Product B, 3-phenoxy-1-(4-phenylpiperidino)propan-2-ol hydrochloride, reference compound], the minimum bactericidal concentration (MBC) in test [1] (setting [7]), in test [3] (setting [9]), in test [4] (setting [10]) and in test [6] (setting [11]) was greater than 1000 µg/mL each time. In test [2] (setting [8]), the MFC is greater than 1000 µg/mL. In addition, the “antimicrobial activity (in words)” value in test [5] was “no antimicrobial activity”.
With `CC1CCN(CC(O)COc2ccc(Br)cc2)CC1.Cl` (centres unmarked) [Product A, 3-(4-bromophenoxy)-1-(4-methylpiperidino)propan-2-ol hydrochloride, reference compound], the MBC (as a rule, the smallest concentration meeting the test's criterion for killing) in test [1] (setting [7]) was 1000 µg/mL; in test [3] (setting [9]), greater than 2000 µg/mL; in test [4] (setting [10]), 1000 µg/mL; in test [6] (setting [11]), 1000 µg/mL. Also, the MFC in test [2] (setting [8]) was 5000 µg/mL. For the same compound, in test [5], the “antimicrobial activity (in words)” value is “no antimicrobial activity”.
For `CC(C)NCC(O)COc1cccc2ccccc12` (centres unmarked) [Propranolol, propranolol, reference compound], the MBC worked out at 1000 µg/mL (≈ 3860 µM) in test [1] (Escherichia coli), 5000 µg/mL (≈ 19300 µM) in test [3] (Staphylococcus aureus), 1000 µg/mL (≈ 3860 µM) in test [4] and 1000 µg/mL (≈ 3860 µM) in test [6] (Pseudomonas aeruginosa). Moreover, the MFC in test [2] (Candida albicans) turned out to be 5000 µg/mL (≈ 19300 µM). Also, in test [5], the “antimicrobial activity (in words)” value is listed as “no antimicrobial activity”.
Regarding `CS(=O)(=O)O.OC(COc1ccc(Cl)cc1Cl)CN1CCCC(Cc2ccccc2)C1` (centres unmarked) [SR 44957 A, 1-(3-Benzylpiperidino)-3-(2,4-dichlorophenoxy)propan-2-ol methanesulfonate], the “MBC, strain 4” value in test [1] (setting [7]) was no more than 10 µg/mL. For the same compound, in test [2] (setting [8]), the “MFC, strain 5” value is 50 µg/mL. Besides, the “MBC, strain 1” value in test [3] (setting [9]) turned out to be 50 µg/mL. The “MBC, strain 2” value in test [4] (setting [10]) is no more than 10 µg/mL. In addition, the “MBC, strain 3” value in test [6] (setting [11]) was no more than 10 µg/mL.
Take `OC(CSc1ccc(Cl)c(Cl)c1)CN1CCC(Cc2ccc(Cl)cc2)CC1` (racemic) [SR 45077 A]: the MBC was 10 µg/mL (≈ 22.5 µM) in test [1] (setting [7]), 50 µg/mL (≈ 112 µM) in test [3] (setting [9]), 10 µg/mL (≈ 22.5 µM) in test [4] (setting [10]) and 50 µg/mL (≈ 112 µM) in test [6] (setting [11]). The minimal fungicidal concentration (MFC) in test [2] (setting [8]) turned out to be 50 µg/mL (≈ 112 µM).
On to `OC(COc1cc(Cl)c(Cl)cc1Cl)CN1CCC(Cc2ccccc2)CC1` (racemic) [SR 44560 A], for which the MBC turned out to be 5 µg/mL (≈ 11.7 µM) in test [1] (setting [7]), 10 µg/mL (≈ 23.3 µM) in test [3] (setting [9]), 50 µg/mL (≈ 117 µM) in test [4] (setting [10]) and 50 µg/mL (≈ 117 µM) in test [6] (setting [11]). Also, the MFC in test [2] (setting [8]) is 50 µg/mL (≈ 117 µM).
As to `OC(COc1cccc2ccccc12)CN1CCC(Cc2ccccc2)CC1` (racemic) [SR 44644 A], the MBC in test [1] (setting [7]), in test [3] (setting [9]), in test [4] (setting [10]) and in test [6] (setting [11]) was 50 µg/mL (≈ 133 µM) throughout. Also, the MFC in test [2] (setting [8]) was found to be 50 µg/mL (≈ 133 µM).
